Reference: patent US20060135607A1, “Drug for improving prognosis for subarachnoid hemorrhage” (MOCHIDA PHARMACEUTICAL CO., LTD., priority 2003, published 2006)

Tested on: patients with subarachnoid hemorrhage
Experiment: Clinical study of postoperative EPA administration in patients with subarachnoid hemorrhage caused by ruptured aneurysm (GOS, survival, adverse events)
Assay type: in vivo, human
Excerpt: Sixty four patients with subarachnoid hemorrhage caused by the ruptured aneurysm and subjected to surgical operations by the third day after onset (22 males and 42 females of the ages from 30's-80's) were divided into two groups (each having 32 individuals) designated as an EPA-administration group and an EPA-non-administration group. In addition, no difference was recognized in their background factors of both groups. Just after the operation, the EPA administration group received the administration of ethyl eicosapentaenoate (trade name: Epadel, manufactured by Mochida Pharmaceutical Co., Ltd.), 1,800 mg divided in three-doses a day for 14 days. Subsequently, the administration was continued during the hospital stay. At the stage of being impossible to dietary intake, tube-feedings were carried out. EPA suspended in hot water was administered through a stomach tube (Magen Sonde). At that time, for enhancing the absorption of EPA, 50 mg of Urso granule (manufactured by Mitsubishi Pharma Corporation) was administered through the stomach tube 15 minutes before EPA administration. At the stage of being possible to dietary intake, a commercial EPA preparation was administered orally. Furthermore, both groups were treated in combination with basic treatments on subarachnoid hemorrhage. However, some of the drugs were defined as prohibited substances. At the 30th day from the onset of subarachnoid hemorrhage, an evaluation was carried out by the Glasgow Outcome Scale (GOS).

[1] = 30th day from onset, 32 patients per group, 1,800 mg/day
[2] = 32 patients per group, 1,800 mg/day

In the case of `CC/C=C\C/C=C\C/C=C\C/C=C\C/C=C\CCCC(=O)OCC` [EPA, ethyl eicosapentaenoate], the “GOS: D (Death), number of patients” value [1] is reported as 1, the “GOS: MD (Moderate disability), number of patients” value [1] is reported as 6 and the “GOS: SD (Severe disability), number of patients” value [1] is reported as 2. For the same molecule, the “GOS: VS (Vegetative state), number of patients” value [1] was 2, the “GOS: GR (Good recovery), number of patients” value (30th day from onset, 32 patients per group, 1,800 mg/day in three doses, oral or stomach tube, Wilcoxon U test P=0.0128 vs non-administration group) was 21 and the “Death, number of patients” value [2] was 1. The “Survival, number of patients” value [2] was 31, the Survival rate (32 patients per group, 1,800 mg/day, Fisher's exact test P=0.0265 vs non-administration group) was 97% and the “Adverse event considered as a result of the EPA administration” value (subarachnoid hemorrhage patients, 1,800 mg/day for 14 days and continued during hospital stay) was “not found”.
